The text below walks through data of patent publication US7786113B2, “Heterocyclic carbamate derivatives, their manufacture and use as pharmaceutical agents” (Hoffman-La Roche Inc., priority 2004, dated 2010).

One assay deals with T1, Src (p60^c-src) (Homo sapiens, UniProt P12931).
T1 construct: purchased UBI, Upstate Biotech, Inc
The assay can be described thus: SRC-Inhibitor-Assay (time-resolved fluorescence kinase assay), Src. In kind it is biochemical. Conditions: ATP 5 μM, peptide 10 μM, enzyme 2.5 U/ml, pH 7.3. From the text:
(§1) The activity of the compounds according to this invention as inhibitors for the src-family tyrosine kinases was shown by using the following assay.
(§2) ATP, Tween™ 20, 4-(2-hydroxyethyl)-1-piperazineethanesulfonic acid (HEPES) were purchased from Roche Molecular Biochemicals, MgCl2 and MnCl2 were purchased from Merck Eurolab, Tris(2-carboxyethyl)phosphine hydrochloride (TCEP) was purchased from Pierce, 384 Well low volume fluorescence plates was purchased from Falcon.
(§3) At first the enzyme is pre-incubated for 15 min. at 15° C. in aqueous solution with corresponding amounts of inhibitors according to this invention. Then the phosphorylation reaction is started by adding a reaction mixture, containing ATP, Peptide and PT66, and subsequent shaking. The proceeding of this reaction is immediately monitored using time resolved fluorescence spectroscopy in a suitable well plate reader.
(§4) The IC50-values can be obtained from the reaction rates by using a non-linear curve fit (XLfit software (ID Business Solution Ltd., Guilford, Surrey, UK))

The target of a further assay is T2, Lck (p56^lck) (Homo sapiens, UniProt P06239).
T2 construct: purchased UBI, Upstate Biotech, Inc
T2 sequence (P06239 whole entry): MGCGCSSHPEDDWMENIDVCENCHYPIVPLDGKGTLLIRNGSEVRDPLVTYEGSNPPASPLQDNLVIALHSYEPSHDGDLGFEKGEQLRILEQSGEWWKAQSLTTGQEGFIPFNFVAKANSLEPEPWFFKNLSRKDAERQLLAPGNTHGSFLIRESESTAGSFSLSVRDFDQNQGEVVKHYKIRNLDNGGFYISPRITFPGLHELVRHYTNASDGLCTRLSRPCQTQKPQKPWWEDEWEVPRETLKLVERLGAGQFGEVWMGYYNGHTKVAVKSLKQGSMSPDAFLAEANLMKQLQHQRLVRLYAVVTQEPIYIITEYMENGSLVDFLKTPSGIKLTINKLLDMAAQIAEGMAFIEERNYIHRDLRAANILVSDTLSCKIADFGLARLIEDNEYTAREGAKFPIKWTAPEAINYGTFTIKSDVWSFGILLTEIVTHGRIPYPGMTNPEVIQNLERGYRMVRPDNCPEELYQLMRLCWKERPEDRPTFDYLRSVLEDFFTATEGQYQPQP
The assay can be described thus: SRC-Inhibitor-Assay (time-resolved fluorescence kinase assay), Lck. Type of assay: biochemical. Conditions: ATP 5 μM, peptide 10 μM, enzyme 2.5 U/ml, pH 7.3.
Source text: as §1, §2, §3, §4

T1 sequence (P12931 whole entry): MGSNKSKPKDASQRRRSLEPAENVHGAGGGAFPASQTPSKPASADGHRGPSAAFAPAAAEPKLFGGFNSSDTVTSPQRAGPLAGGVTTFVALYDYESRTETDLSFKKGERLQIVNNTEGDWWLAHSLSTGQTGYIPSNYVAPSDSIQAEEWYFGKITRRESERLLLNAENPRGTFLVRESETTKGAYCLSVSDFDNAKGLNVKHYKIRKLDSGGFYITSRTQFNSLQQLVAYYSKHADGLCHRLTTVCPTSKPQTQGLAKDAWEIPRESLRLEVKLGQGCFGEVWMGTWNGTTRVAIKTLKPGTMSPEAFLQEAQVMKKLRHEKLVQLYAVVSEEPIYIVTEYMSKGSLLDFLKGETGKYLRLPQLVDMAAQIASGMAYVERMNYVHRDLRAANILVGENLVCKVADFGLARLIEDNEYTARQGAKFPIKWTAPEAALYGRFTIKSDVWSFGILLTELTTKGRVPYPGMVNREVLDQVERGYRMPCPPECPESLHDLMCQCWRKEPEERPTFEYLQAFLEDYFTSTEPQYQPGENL

Broadly, the IC50 is the midpoint of a concentration-inhibition curve. With `C=CC(C)OC(=O)Nc1cnc2[nH]c(-c3ccccc3)nc2c1` (stereo not shown) [Example 1-1, (2-Phenyl-3H-imidazo[4,5-b]pyridin-6-yl)-carbamic acid 1-methyl-allyl ester], the IC50 on Src (p60^c-src) was 10 to 500 nM; against Lck (p56^lck), 100 to 9000 nM.

Take `CC(C)OC(=O)Nc1cnc2nc(-c3ccccc3)[nH]c2c1` [Example 1-2, (2-Phenyl-1H-imidazo[4,5-b]pyridin-6-yl)-carbamic acid isopropyl ester]: the IC50 against Src (p60^c-src) was 10 to 500 nM; against Lck (p56^lck) it was 100 to 9000 nM.

As for `CCC(C)OC(=O)Nc1cnc2[nH]c(-c3ccccc3)nc2c1` (stereo not shown) [Example 1-9, (2-Phenyl-3H-imidazo[4,5-b]pyridin-6-yl)-carbamic acid sec-butyl ester], the IC50 lay in the range of 10 to 500 nM at Src (p60^c-src) and 100 to 9000 nM at Lck (p56^lck).

Consider `CC(OC(=O)Nc1cnc2[nH]c(-c3ccccc3)nc2c1)C(F)(F)F` (stereo not shown) [Example 1-11, (2-Phenyl-3H-imidazo[4,5-b]pyridin-6-yl)-carbamic acid 2,2,2-trifluoro-1-methyl-ethyl ester], for which the IC50 on Src (p60^c-src) was 228 nM; against Lck (p56^lck) it was 5000 to 10000 nM.

As to `CC(C)(C)COC(=O)Nc1cnc2[nH]c(-c3ccccc3)nc2c1` [Example 1-12, (2-Phenyl-3H-imidazo[4,5-b]pyridin-6-yl)-carbamic acid 2,2-dimethyl-propyl ester], the figures for the IC50 on Src (p60^c-src) and at Lck (p56^lck) were 500 to 1500 nM and 2000 to 9000 nM, respectively.

For `CC(OC(=O)Nc1cnc2[nH]c(-c3ccccc3)nc2c1)c1ccccc1` (stereo not shown) [Example 1-13, (2-Phenyl-3H-imidazo[4,5-b]pyridin-6-yl)-carbamic acid 1-phenyl-ethyl ester], the IC50 at Src (p60^c-src) fell in the range of 10 to 500 nM; on Lck (p56^lck) it was 100 to 9000 nM.

Consider `CCCOC(=O)Nc1cnc2nc(-c3ccccc3)[nH]c2c1` [Example 1-14, (2-Phenyl-1H-imidazo[4,5-b]pyridin-6-yl)-carbamic acid propyl ester], for which the IC50 lay within 10 to 500 nM on Src (p60^c-src) and 100 to 9000 nM against Lck (p56^lck).

For `C#CC(C)OC(=O)Nc1cnc2[nH]c(-c3ccccc3)nc2c1` (stereo not shown) [Example 1-15, (2-Phenyl-3H-imidazo[4,5-b]pyridin-6-yl)-carbamic acid 1-methyl-prop-2-ynyl ester], the IC50 was 10 to 500 nM against Src (p60^c-src) and 100 to 9000 nM against Lck (p56^lck).

With `CC#CC(C)OC(=O)Nc1cnc2[nH]c(-c3ccccc3)nc2c1` (stereo not shown) [Example 1-16, (2-Phenyl-3H-imidazo[4,5-b]pyridin-6-yl)-carbamic acid 1-methyl-but-2-ynyl ester], the IC50 at Src (p60^c-src) fell in the range of 10 to 500 nM; at Lck (p56^lck), 100 to 9000 nM.

Regarding `O=C(Nc1cnc2[nH]c(-c3ccccc3)nc2c1)OC1CCC1` [Example 1-17, (2-Phenyl-3H-imidazo[4,5-b]pyridin-6-yl)-carbamic acid cyclobutyl ester], the results for the IC50 at Src (p60^c-src) and at Lck (p56^lck) were 10 to 500 nM and 100 to 9000 nM, respectively.

Consider `CC(C)C(C)OC(=O)Nc1cnc2[nH]c(-c3ccccc3)nc2c1` (stereo not shown) [Example 1-19, (2-Phenyl-3H-imidazo[4,5-b]pyridin-6-yl)-carbamic acid 1,2-dimethyl-propyl ester], for which the values for the IC50 on Src (p60^c-src) and at Lck (p56^lck) were 500 to 1500 nM and 2000 to 9000 nM, respectively.

On to `C=C(C)C(C)OC(=O)Nc1cnc2[nH]c(-c3ccccc3)nc2c1` (stereo not shown) [Example 1-22, (2-Phenyl-3H-imidazo[4,5-b]pyridin-6-yl)-carbamic acid 1,2-dimethyl-allyl ester], for which the IC50 against Src (p60^c-src) lay in the range of 10 to 500 nM; against Lck (p56^lck) it was 100 to 9000 nM.

On to `CCN(CC)CCOc1ccc(-c2nc3cc(NC(=O)OC(C)C)cnc3[nH]2)cc1` [Example 2-1, {2-[4-(2-Diethylamino-ethoxy)-phenyl]-3H-imidazo[4,5-b]pyridin-6-yl}-carbamic acid isopropyl ester], for which the IC50 against Src (p60^c-src) is 10 to 500 nM; at Lck (p56^lck) it was 100 to 9000 nM.

`COCCOc1ccc(-c2nc3cc(NC(=O)OC(C)C)cnc3[nH]2)cc1` [Example 2-3, {2-[4-(2-Methoxy-ethoxy)-phenyl]-3H-imidazo[4,5-b]pyridin-6-yl}-carbamic acid isopropyl ester]: the IC50 against Src (p60^c-src) fell in the range of 10 to 500 nM; at Lck (p56^lck) it was 100 to 9000 nM.

Turning to `CC(C)OC(=O)Nc1cnc2[nH]c(-c3cccc([N+](=O)[O-])c3)nc2c1` [Example 2-4, [2-(3-Nitro-phenyl)-3H-imidazo[4,5-b]pyridin-6-yl]-carbamic acid isopropyl ester], the IC50 was determined as 185 nM against Src (p60^c-src) and 1340 nM against Lck (p56^lck).

In the case of `CC(C)OC(=O)Nc1cnc2[nH]c(-c3ccc(N4CCOCC4)cc3)nc2c1` [Example 2-5, [2-(4-Morpholin-4-yl-phenyl)-3H-imidazo[4,5-b]pyridin-6-yl]-carbamic acid isopropyl ester], the IC50 on Src (p60^c-src) is 10 to 500 nM; at Lck (p56^lck) it was 100 to 9000 nM.

Take `CC(C)OC(=O)Nc1cnc2[nH]c(-c3ccc(N4CCN(C)CC4)cc3)nc2c1` [Example 2-8, {2-[4-(4-Methyl-piperazin-1-yl)-phenyl]-3H-imidazo[4,5-b]pyridin-6-yl}-carbamic acid isopropyl ester]: the results for the IC50 at Src (p60^c-src) and at Lck (p56^lck) were 10 to 500 nM and 100 to 9000 nM, respectively.

In the case of `CC(C)OC(=O)Nc1cnc2[nH]c(-c3cccc(CCO)c3)nc2c1` [Example 2-9, {2-[3-(2-Hydroxy-ethyl)-phenyl]-3H-imidazo[4,5-b]pyridin-6-yl}-carbamic acid isopropyl ester], the results for the IC50 on Src (p60^c-src) and against Lck (p56^lck) were 10 to 500 nM and 100 to 9000 nM, respectively.

Take `Cc1cc(-c2nc3cc(NC(=O)OC(C)C)cnc3[nH]2)ccn1` [Example 3-1, [2-(2-Methyl-pyridin-4-yl)-3H-imidazo[4,5-b]pyridin-6-yl]-carbamic acid isopropyl ester]: the IC50 was in the range of 10 to 500 nM against Src (p60^c-src) and 100 to 9000 nM against Lck (p56^lck).

With `CC(C)OC(=O)Nc1cnc2[nH]c(-c3ccc([N+](=O)[O-])cc3)nc2c1` [Example 3-4, [2-(4-Nitro-phenyl)-3H-imidazo[4,5-b]pyridin-6-yl]-carbamic acid isopropyl ester], the IC50 against Src (p60^c-src) is 10 to 500 nM; against Lck (p56^lck) it was 100 to 9000 nM.

`CC(C)OC(=O)Nc1cnc2[nH]c(-c3ccc(N4CCOCC4)nc3)nc2c1` [Example 3-7, [2-(6-Morpholin-4-yl-pyridin-3-yl)-3H-imidazo[4,5-b]pyridin-6-yl]-carbamic acid isopropyl ester]: the IC50 lay in the range of 10 to 500 nM on Src (p60^c-src) and 100 to 9000 nM on Lck (p56^lck).

Turning to `CC(C)OC(=O)Nc1cnc2[nH]c(-c3cccc(N)c3)nc2c1` [Example 5-1, [2-(3-Amino-phenyl)-3H-imidazo[4,5-b]pyridin-6-yl]-carbamic acid isopropyl ester], the IC50 on Src (p60^c-src) was in the range of 10 to 500 nM; against Lck (p56^lck) it was 100 to 9000 nM.

Regarding `CC(C)OC(=O)Nc1cnc2[nH]c(-c3ccc(N)cc3)nc2c1` [Example 5-2, [2-(4-Amino-phenyl)-3H-imidazo[4,5-b]pyridin-6-yl]-carbamic acid isopropyl ester], the IC50 against Src (p60^c-src) lay within 10 to 500 nM; against Lck (p56^lck) it was 100 to 9000 nM.

With `CC(=O)Nc1cccc(-c2nc3cc(NC(=O)OC(C)C)cnc3[nH]2)c1` [Example 6-1, [2-(3-Acetylamino-phenyl)-3H-imidazo[4,5-b]pyridin-6-yl]-carbamic acid isopropyl ester], the IC50 at Src (p60^c-src) amounted to 39 nM; at Lck (p56^lck) it was 791 nM.

Take `CC(C)OC(=O)Nc1cnc2[nH]c(-c3cccc(NS(C)(=O)=O)c3)nc2c1` [Example 7-1, [2-(3-Methanesulfonylamino-phenyl)-3H-imidazo[4,5-b]pyridin-6-yl]-carbamic acid isopropyl ester]: the IC50 against Src (p60^c-src) fell in the range of 10 to 500 nM; against Lck (p56^lck), 100 to 9000 nM.

With `CC(C)OC(=O)Nc1cnc2[nH]c(-c3cccc([S+](C)[O-])c3)nc2c1` (stereo not shown) [Example 8-1, [2-(3-Methylsulfinyl-phenyl)-3H-imidazo[4,5-b]pyridin-6-yl]-carbamic acid isopropyl ester], the IC50 at Src (p60^c-src) was 10 to 500 nM; against Lck (p56^lck), 100 to 9000 nM.

`CC(C)OC(=O)Nc1cnc2[nH]c(-c3cccc(S(C)(=O)=O)c3)nc2c1` [Example 8-2, [2-(3-Methylsulfonyl-phenyl)-3H-imidazo[4,5-b]pyridin-6-yl]-carbamic acid isopropyl ester]: the IC50 at Src (p60^c-src) was 10 to 500 nM; on Lck (p56^lck), 100 to 9000 nM.

In the case of `CC(C)OC(=O)Nc1cnc2[nH]c(-c3ccc([S+](C)[O-])cc3)nc2c1` (stereo not shown) [Example 8-4, [2-(4-Methanesulfinyl-phenyl)-3H-imidazo[4,5-b]pyridin-6-yl]-carbamic acid isopropyl ester], the results for the IC50 against Src (p60^c-src) and against Lck (p56^lck) were 10 to 500 nM and 100 to 9000 nM, respectively.

In the case of `CC(C)OC(=O)Nc1cnc2[nH]c(-c3ccccc3)cc2c1` [Example 9-1, (2-Phenyl-1H-pyrrolo[2,3-b]pyridin-5-yl)-carbamic acid isopropyl ester], the IC50 on Src (p60^c-src) lay within 10 to 500 nM; against Lck (p56^lck), 100 to 9000 nM.

For `CCOC(=O)Nc1cnc2[nH]c(-c3ccc(OCCOC)cc3)cc2c1` [Example 9-4, {2-[4-(2-Methoxy-ethoxy)-phenyl]-1H-pyrrolo[2,3-b]pyridin-5-yl}-carbamic acid ethyl ester], the IC50 on Src (p60^c-src) is 10 to 500 nM; against Lck (p56^lck), 100 to 9000 nM.

For `C=CCOC(=O)Nc1cnc2[nH]c(-c3ccc(OCCOC)cc3)cc2c1` [Example 9-5, {2-[4-(2-Methoxy-ethoxy)-phenyl]-1H-pyrrolo[2,3-b]pyridin-5-yl}-carbamic acid allyl ester], the values for the IC50 against Src (p60^c-src) and at Lck (p56^lck) were 10 to 500 nM and 100 to 9000 nM, respectively.

For the compound `O=C(Nc1cnc2[nH]c(-c3ccccc3)cc2c1)OCc1ccccc1` [Example 9-8, (2-Phenyl-1H-pyrrolo[2,3-b]pyridin-5-yl)-carbamic acid benzyl ester], the IC50 against Src (p60^c-src) was 10 to 500 nM; at Lck (p56^lck) it was 100 to 9000 nM.
